In patent US20220401514A1, “ANTIMICROBIAL, BACTERIOPHAGE-DERIVED POLYPEPTIDES AND THEIR USE AGAINST GRAM-NEGATIVE AND ACID-FAST BACTERIA” (CONTRAFECT CORPORATION, priority 2019, published 2022):

Columns and labels:
[1] = test system: Pseudomonas aeruginosa, Escherichia coli, Enterobacter cloacae, Klebsiella pneumoniae, and Acinetobacter baumannii; assay: MIC against a range of Gram-negative organisms (statements covering several species); assay type: cell-based; conditions: Tables 40-44 isolates
In short: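 Medium: CAA with added human serum. Peptides tested for minimal inhibitory concentration against each strain.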

[2] = test system: Acinetobacter baumannii strain 30; assay: Checkerboard assay (FICI) with antibiotics, A. baumannii; assay type: cell-based; parameters: key to FIC Index: FICI = FIC A + FIC B; ≤0.5 synergy, ≥2 antagonism; conditions: for Chp peptide FIC / Chp peptide MIC: checkerboard
M. fortuitum = assay: 45 hr MIC against M. fortuitum (NTM); assay type: cell-based, Mycobacterium fortuitum; conditions: M. fortuitum subsp. Fortuitum da Costa Cruz. ATCC 6841
M. smegmatis = assay: 45 hr MIC against M. smegmatis (NTM), Mueller Hinton broth; assay type: cell-based, Mycobacterium smegmatis
[3] = test system: carbapenem-resistant bacterial strains; assay: organism not typed; assay type: cell-based
Excerpt: Determination of Minimal Inhibitory Concentrations (MIC).

P. aeruginosa (CFS 1292) = assay: microbe, parasite or virus in culture; assay type: cell-based, Pseudomonas aeruginosa
M. scrofulaceum = assay: 45 hr MIC against M. scrofulaceum (NTM); assay type: cell-based, Mycobacterium scrofulaceum; conditions: M. scrofulaceum Prissick and Masson ATCC 19981
[4] = in combination with Azithromycin
[5] = in combination with Ciprofloxacin
[6] = in combination with Levofloxacin
[7] = in combination with Piperacillin

MRLKMARRRYRLPRRRSRRLFSRTALRMHPRNRLRRIMRGGIRF [Chp2]
activity (good = MIC100 of ≤4) against all of P. aeruginosa, K. pneumoniae, A. baumannii, E. cloacae, and E. coli [1]: good activity
FIC Index ([2]; Chp peptide + Amikacin): 0.281
FIC Index ([2]; Chp peptide + Azithromycin): 0.563
FIC Index ([2]; Chp peptide + Aztreonam): 0.313
FIC Index ([2]; Chp peptide + Ciprofloxacin): 0.531
FIC Index ([2]; Chp peptide + Colistin): 0.375
FIC Index ([2]; Chp peptide + Gentamicin): 0.313
FIC Index ([2]; Chp peptide + Imipenem): 0.531
FIC Index ([2]; Chp peptide + Levofloxacin): 0.5
FIC Index ([2]; Chp peptide + Meropenem): 0.375
FIC Index ([2]; Chp peptide + Piperacillin): 0.375
FIC Index ([2]; Chp peptide + Tobramycin): 0.188
Chp peptide FIC ([2]; in combination with Amikacin): 0.03125
Chp peptide MIC ([2]; in combination with Amikacin): 0.03125 µg/mL
Chp peptide FIC [2, 4]: 0.0625
Chp peptide MIC [2, 4]: 0.03125 µg/mL
Chp peptide FIC ([2]; in combination with Aztreonam): 0.0625
Chp peptide MIC ([2]; in combination with Aztreonam): 0.0625 µg/mL
Chp peptide FIC [2, 5]: 0.5
Chp peptide MIC [2, 5]: 0.5 µg/mL
Chp peptide FIC ([2]; in combination with Colistin): 0.25
Chp peptide MIC ([2]; in combination with Colistin): 0.25 µg/mL
Chp peptide FIC ([2]; in combination with Gentamicin): 0.0625
Chp peptide MIC ([2]; in combination with Gentamicin): 0.0625 µg/mL
Chp peptide FIC ([2]; in combination with Imipenem): 0.03125
Chp peptide MIC ([2]; in combination with Imipenem): 0.01562 µg/mL
Chp peptide FIC [2, 6]: 0.25
Chp peptide MIC [2, 6]: 0.25 µg/mL
Chp peptide FIC ([2]; in combination with Meropenem): 0.125
Chp peptide MIC ([2]; in combination with Meropenem): 0.125 µg/mL
Chp peptide FIC [2, 7]: 0.125
Chp peptide MIC [2, 7]: 0.125 µg/mL
Chp peptide FIC ([2]; in combination with Tobramycin): 0.0625
Chp peptide MIC ([2]; in combination with Tobramycin): 0.0625 µg/mL
45 hr MIC (M. fortuitum): 2 µg/mL
45 hr MIC (M. smegmatis; M. smegmatis MC^2 155, Run #1): 4 µg/mL
45 hr MIC (M. smegmatis; M. smegmatis MC^2 155, Run #2): 4 µg/mL
MIC ([3]; carbapenem-resistant isolate PA19): 0.5 µg/mL
MIC ([3]; carbapenem-resistant isolate PA20): 1 µg/mL
MIC ([3]; carbapenem-resistant isolate PA21): 1 µg/mL
MIC ([3]; carbapenem-resistant isolate PA22): 1 µg/mL
MIC ([3]; carbapenem-resistant isolate PA23): 1 µg/mL
MIC ([3]; carbapenem-resistant isolate PA24): 1 µg/mL
MIC ([3]; carbapenem-resistant isolate WLC-452): 0.5 µg/mL
Passage MIC Passage #1 (Untreated) (P. aeruginosa (CFS 1292); Passage #1, MIC of agent on untreated culture): 0.25 µg/mL
Passage MIC Passage #1 (P. aeruginosa (CFS 1292); Passage #1, colonies from spot dilution, duplicates (1),(2)): 0.25 µg/mL
Passage MIC Passage #2 (Untreated) (P. aeruginosa (CFS 1292); Passage #2, MIC of agent on untreated culture): 0.25 µg/mL
Passage MIC Passage #2 (P. aeruginosa (CFS 1292); Passage #2, colonies from spot dilution, duplicates (1),(2)): 0.25 µg/mL
Passage MIC Passage #3 (Untreated) (P. aeruginosa (CFS 1292); Passage #3, MIC of agent on untreated culture): 0.25 µg/mL
Passage MIC Passage #3 (P. aeruginosa (CFS 1292); Passage #3, colonies from spot dilution, duplicates (1),(2)): 0.25 µg/mL
Passage MIC Passage #4 (Untreated) (P. aeruginosa (CFS 1292); Passage #4, MIC of agent on untreated culture): 0.25 µg/mL
Passage MIC Passage #4 (P. aeruginosa (CFS 1292); Passage #4, colonies from spot dilution, duplicates (1),(2)): 0.25 µg/mL
Passage MIC Passage #5 (Untreated) (P. aeruginosa (CFS 1292); Passage #5, MIC of agent on untreated culture): 0.25 µg/mL
Passage MIC Passage #5 (P. aeruginosa (CFS 1292); Passage #5, colonies from spot dilution, duplicates (1),(2)): 0.25 µg/mL
MIC Center (P. aeruginosa (CFS 1292); spot dilution assay, colonies from center of clearing zone): No growth
MIC Periphery (P. aeruginosa (CFS 1292); spot dilution assay, colonies from periphery of clearing zone): 0.25 µg/mL
MIC Untreated control (P. aeruginosa (CFS 1292); spot dilution assay, untreated control): 0.25 µg/mL
propensity towards resistance (P. aeruginosa (CFS 1292); spot dilution colonies, five passages total): no propensity towards resistance
45 hr MIC (M. scrofulaceum): 0.5 µg/mL
